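Briefly, cells in 96-well plates were exposed to five compound concentrations for 48 h, and endpoints were estimated by linear interpolation. GI50: concentration for 50% inhibition of growth. TGI denotes the concentration required for complete inhibition of growth.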
Assays:
Test in all cases: NCI anticancer screen, dose series, 48 h
[1] = tested on: A549 NSCLC
[2] = tested on: HCT-15 colon
[3] = tested on: K-562 leukemia
[4] = tested on: M14 melanoma
[5] = tested on: NCI-H226 lung
[6] = tested on: NCI-H23 lung
[7] = tested on: NCI-H522 lung
[8] = tested on: SF-268 CNS
[9] = tested on: OVCAR-4 ovarian
[10] = tested on: OVCAR-8 ovarian

Cc1cccc(NC(=O)CC#N)c1Cl
TGI [1]: > 100 µM | TGI [2]: > 100 µM | TGI [3]: > 100 µM | TGI [4]: > 100 µM | TGI [5]: > 100 µM | TGI [6]: > 100 µM | TGI [7]: > 100 µM | TGI [8]: > 100 µM

COc1ccc(CC2C3=C(CCCC3)CCN2C)cc1 (stereo unspecified)
TGI [1]: > 100 µM | TGI [2]: > 100 µM | TGI [3]: > 100 µM | TGI [4]: > 100 µM | TGI [5]: > 100 µM | TGI [6]: > 100 µM | TGI [9]: > 100 µM | TGI [10]: > 100 µM | TGI [8]: > 100 µM

O=[N+]([O-])c1ccc(-c2cn(-c3ccc(Cl)cc3)cn2)cc1
TGI [1]: > 100 µM | TGI [2]: > 100 µM | TGI [3]: > 100 µM | TGI [4]: > 100 µM | TGI [5]: > 100 µM | TGI [6]: > 100 µM | TGI [7]: 14.4 µM | TGI [10]: > 100 µM | TGI [8]: > 100 µM

CC(Oc1ccc2cc(C(=O)c3ccccc3)c(=O)oc2c1)C(=O)O (stereo unspecified)
TGI [1]: > 100 µM | TGI [3]: > 100 µM | TGI [4]: > 100 µM | TGI [5]: > 100 µM | TGI [6]: > 100 µM | TGI [7]: > 100 µM | TGI [9]: > 100 µM | TGI [10]: > 100 µM | TGI [8]: > 100 µM

O=C1c2cccnc2C(=O)c2c1c(C(=O)OCCN1CCOCC1)c1ccccn21
GI50 [1]: 0.0205 µM | TGI [1]: 1.17 µM | GI50 [3]: 0.0198 µM | GI50 [4]: < 0.01 µM | TGI [4]: 0.116 µM | GI50 [5]: < 0.017 µM | TGI [5]: 0.696 µM | GI50 [6]: < 0.01 µM | GI50 [7]: < 0.0109 µM | TGI [7]: 0.0449 µM | GI50 [9]: 1.07 µM | TGI [9]: 5.29 µM | GI50 [10]: < 0.0168 µM | TGI [10]: 9.21 µM | GI50 [8]: < 0.0136 µM | TGI [8]: 16.2 µM

CCc1ccc(Nc2cc(C)nc3nc(C)nn23)cc1
GI50 [1]: 45.4 µM | TGI [1]: > 100 µM | GI50 [2]: 32.8 µM | TGI [2]: > 100 µM | GI50 [3]: 35.5 µM | TGI [3]: > 100 µM | GI50 [5]: 85 µM | TGI [5]: > 100 µM | GI50 [6]: > 100 µM | TGI [6]: > 100 µM | GI50 [7]: 42.3 µM | TGI [7]: > 100 µM | GI50 [9]: 27.7 µM | TGI [9]: > 100 µM | GI50 [10]: 79.8 µM | TGI [10]: > 100 µM | GI50 [8]: 69.1 µM | TGI [8]: > 100 µM

CC(=O)c1ccc(NCN2C(=O)c3ccccc3C2=O)cc1
TGI [1]: > 100 µM | TGI [2]: > 100 µM | TGI [3]: > 100 µM | TGI [4]: > 100 µM | TGI [6]: > 100 µM | TGI [7]: > 100 µM | TGI [9]: > 100 µM | TGI [10]: > 100 µM | TGI [8]: > 100 µM

Cc1ccc(C2=C(c3ccccc3)C(O)(c3ccc(C)cc3)C(c3ccccc3)=C2c2ccc(C)cc2)cc1
TGI [1]: > 100 µM | TGI [2]: > 100 µM | TGI [3]: > 100 µM | TGI [4]: > 100 µM | TGI [6]: 40.2 µM | TGI [9]: > 100 µM | TGI [10]: > 100 µM | TGI [8]: > 100 µM

COc1ccc(/C=C/C(=O)c2ccc(Nc3ccnc4cc(Cl)ccc34)cc2)cc1
GI50 [1]: > 100 µM | TGI [1]: > 100 µM | GI50 [2]: > 100 µM | TGI [2]: > 100 µM | GI50 [3]: 4.15 µM | TGI [3]: > 54 µM | GI50 [4]: > 100 µM | TGI [4]: > 100 µM | GI50 [5]: > 100 µM | TGI [5]: > 100 µM | GI50 [6]: > 100 µM | TGI [6]: > 100 µM | GI50 [7]: > 100 µM | TGI [7]: > 100 µM | GI50 [9]: > 100 µM | TGI [9]: > 100 µM | GI50 [10]: > 100 µM | TGI [10]: > 100 µM | GI50 [8]: > 100 µM | TGI [8]: > 100 µM
